A short description of assay [1]: Antiproliferative activity against human GBM43 cells cultured under pH 6.5 assessed as reduction in cell viability by measuring growth inhibition incubated for 48 hrs by MTT assay. The class given is functional.
The nature of assay [2]: Antiproliferative activity against human GBM43 cells cultured under pH 7.5 assessed as reduction in cell viability by measuring growth inhibition incubated for 48 hrs by MTT assay. It counts as functional.
Assay [3] is described as follows: Potency index, ratio of ophiobolin A GI50 to test compound GI50 for antiproliferative activity against human GBM43 cells cultured under pH 6.5 assessed as reduction in cell viability by measuring growth inhibition incubated for 48 hrs by MTT assay. It counts as functional.
A further assay concerns U-87 MG. Nature of the assay: Antitumor activity against human U-87 MG cells stably expressing luciferase reporter xenografted in female athymic nude mouse assessed as median survival time at 24 mg/kg, iv administered for six times starting from day 12 post tumor development and measured upto 60 days post tumor development. It counts as functional, U-87MG ATCC. As to conditions: time <= 48 day.

With `CC(C)=C[C@H]1C[C@H](C)[C@]2(CC[C@]3(C)C[C@H]4[C@H](C(=O)C[C@@]4(C)O)/C(=C/OCCF)[C@H](O)C[C@H]32)O1`, the GI50 in assay [1] came to 1500 nM; in assay [2] it was 2770 nM.

In the case of `CC(C)=C[C@H]1C[C@H](C)[C@]2(CC[C@]3(C)C[C@H]4[C@H](C(=O)C[C@@]4(C)O)/C(C(O)OCCF)=C\C[C@H]32)O1` (some centres not stated), the 50% growth inhibitory concentration (GI50) turned out to be 1700 nM in assay [1] and 2890 nM in assay [2]. Take `CC(C)=C[C@H]1C[C@H](C)[C@]2(CC[C@]3(C)C[C@H]4[C@H](C(=O)C[C@@]4(C)O)/C(=C/OCCBr)[C@H](O)C[C@H]32)O1`: in assay [3], the RatioGI50 worked out at 2. Also, the 50% growth inhibitory concentration (GI50) in assay [1] came out at 140 nM; in assay [2] it was 490 nM. As for `CC(C)=C[C@H]1C[C@H](C)[C@]2(CC[C@]3(C)C[C@H]4[C@H](C(=O)C[C@@]4(C)O)/C(C=O)=C\C[C@H]32)O1` [OPHIOBOLIN A], the values for the GI50 in assay [1] and in assay [2] were 290 nM and 220 nM, respectively. With `CC(C)=C[C@H]1C[C@H](C)[C@]2(CC[C@]3(C)C[C@H]4[C@H](C(=O)C[C@@]4(C)O)/C(C(O)OCCBr)=C\C[C@H]32)O1` (some centres not stated), in assay [3], the RatioGI50 is 2. Further, the GI50 stood at 150 nM in assay [1] and 270 nM in assay [2]. For the compound `CC(C)=C[C@H]1C[C@H](C)[C@]2(CC[C@]3(C)C[C@H]4[C@H](C(=O)C[C@@]4(C)O)/C(=C/OCCCl)[C@H](O)C[C@H]32)O1`, the GI50 in assay [1] was 650 nM; in assay [2], 1070 nM.

Consider `COCCOC(O)/C1=C/C[C@@H]2[C@](C)(CC[C@@]23O[C@@H](C=C(C)C)C[C@@H]3C)C[C@H]2[C@@H]1C(=O)C[C@@]2(C)O` (some centres not stated), for which the concentration for 50% growth inhibition (GI50) in assay [1] amounted to 1090 nM. Still for that read-out and setting: the value for `CC(C)=C[C@H]1C[C@H](C)[C@]2(CC[C@]3(C)C[C@H]4[C@H](C(=O)C[C@@]4(C)O)/C(C(O)OC(C)C)=C\C[C@H]32)O1` (some centres not stated) was 340 nM. The same measure, in the same setting: the value for `CO[C@@H]1O[C@@]2(OC)C[C@@](C)(O)[C@H]3C[C@@]4(C)CC[C@@]5(O[C@@H](C=C(C)C)C[C@@H]5C)[C@@H]4C/C=C/1[C@H]32` was 1460 nM. Turning to `COc1cccc2c1C(=O)c1c(O)c3c(c(O)c1C2=O)C[C@@](O)(/C(CO)=N/NC(=O)CCCCCN1C(=O)C=CC1=O)C[C@@H]3O[C@H]1C[C@H](N)[C@H](O)[C@H](C)O1` [ALDOXORUBICIN], in the assay with U-87 MG, the MST amounted to 62 days. Take `CO[C@H]1O[C@@]2(OC)C[C@@](C)(O)[C@H]3C[C@@]4(C)CC[C@@]5(O[C@@H](C=C(C)C)C[C@@H]5C)[C@@H]4C/C=C/1[C@H]32`: the GI50 in assay [1] was found to be 500 nM. Take `CC(C)=C[C@H]1C[C@H](C)[C@]2(CC[C@]3(C)C[C@H]4[C@H](C(=O)C[C@@]4(C)O)/C(=C/OCC(F)(F)F)[C@H](O)C[C@H]32)O1`: in assay [1], the GI50 was 830 nM. With `CC(C)=C[C@H]1C[C@H](C)[C@]2(CC[C@]3(C)C[C@H]4[C@H](C(=O)C[C@@]4(C)O)/C(C(O)OCCCl)=C\C[C@H]32)O1` (some centres not stated), the GI50 came to 750 nM in assay [1] and 2770 nM in assay [2].

The values above are taken from ChEMBL document CHEMBL5579845, “Ophiobolin A derivatives with enhanced activities under tumor-relevant acidic conditions” (2024).
